Consider six compounds from US20180030074A1, “PHOSPHONIUM COMPOUND AND PRODUCTION METHOD THEREFOR” (priority 2014, published 2018).

The conditions of data set [1]: background statement; cited from earlier work.
The conditions of data set [2]: comparison values quoted without source or species; cited from earlier work.
Data set [3] is described as follows: Mouse biodistribution study. In kind it is in vivo, Slc:ICR mice. The conditions noted are these: mice; for accumulation of labeled compound in the myocardium versus adjacent organs: i.v., 60 or 120 minutes after administration, gamma counter, n=4; for ratio of radioactivity accumulations in the myocardium and liver (heart/liver ratio): time point of 60 minutes. How it is done:
(§1) The animals used in this measurement were 6-8-week-old male Slc:ICR mice (from Japan SLC, Inc.) (n=4). Each of different physiological saline solutions of the [^18F]-labeled compounds (200 μL, 370-740 kBq) used in this measurement was administered to the awake mice via the caudal vein, and after 60 or 120 minutes of the administration, the mice were euthanized by cervical dislocation under isoflurane anesthesia. After blood was sampled from the heart immediately, the heart, lung, liver, spleen, kidney, small intestine, thigh muscle, thigh bone, and brain were excised and measured for amount of radioactivity by a γ counter. The weights of the excised organs were measured, and on that basis, the accumulation rates per gram of the organs with respect to dose (% dose/g of organ, % ID/g) were calculated as indicators for accumulation of the chemical compounds used (n=4).

Data set [4] relates to myocardium. The experiment in a line: Mouse PET/CT imaging. Format: in vivo, Slc:ICR mice. The conditions noted are these: mice, i.v. caudal vein; for accumulation of radioactivity in the myocardium (PET/CT images): imaged 60 minutes after administration for 10 minutes; for contrast of myocardial images: PET/CT 60 minutes after administration. The procedure:
The animals used in this measurement were 6-10-week-old male Slc:ICR mice (from Japan SLC, Inc.). […] Then, the mice were fixed under isoflurane anesthesia (2%, 1.5 mL/min.), and after 60 minutes of the administration, the whole bodies of the mice were imaged by small-animal PET (ClairvivoPET produced by Shimadzu Corporation) for 10 minutes. Subsequently, while the mice were kept fixed, their whole bodies were imaged by small-animal CT (ClairvivoCT produced by Shimadzu Corporation). The PET data were reconstructed by 3D-DRAMA, and the pixel values of the obtained PET images were converted to SUV to generate SUV images. These images were fused with CT images to produce fused images.

Data set [5] relates to myocardium. The experiment in a line: Small-animal PET study in rats. Format: in vivo, Wistar rats. The conditions noted are these: i.v., PET 0 to 120 minutes. How it is done:
The myocardial imaging study of [^18F]TAP-018 in rats was conducted using 6-week-old male Wistar rats. 200 μL (7.83-9.66 MBq) of a physiological saline solution of the test compound [^18F]TAP-018 was administered via the caudal vein to the rats fixed under isoflurane anesthesia (2%, 1.5 mL/min.), and then the whole bodies of the rats were imaged by small-animal PET at time points from 0 to 120 minutes after the administration. Subsequently, while the rats were kept fixed, their whole bodies were imaged by small-animal CT. The PET data were reconstructed by 3D-DRAMA, and the pixel values of the obtained PET images were converted to SUV to generate SUV images. These images were fused with CT images to produce fused images. Further, the locations of the myocardium, lung and liver were identified based on the fused images, and regions of interest (ROI) were drawn to calculate respective SUVavg values.

A short description of data set [6]: Rat biodistribution study. The conditions noted are these: rats. Format: in vivo, Wistar rats. The procedure:
as §1
The biodistribution study of [^18F]TAP-018 in rats was conducted by the same procedure as in Test Example 2 using 6-week-old male Wistar rats (from Japan SLC, Inc.) (n=4). The results are summarized in a bar graph (FIG. 4). […] This value is about ten times higher than the value of 1.5 for [^18F]FBnTP which has been used as a gold standard, and is sufficiently higher than the value of 9.2 for [^18F]FTPP which is currently under clinical study.

The structures appear in SMILES notation.

For the compound `[18F]c1ccc(C[P+](c2ccccc2)(c2ccccc2)c2ccccc2)cc1.[Br-]` [[^18F]FBnTP, 4-[^18F]fluorobenzyl-triphenylphosphonium bromide], the “accumulation in liver relative to myocardium” value in data set [1] is given as “accumulating not only in the myocardium but also in the liver adjacent to the myocardium to the same extent”. Further, in data set [2], the “heart/liver ratio (comparison values of reference agents)” value is reported as 1.5.
Consider `[18F]c1ccc([P+](c2ccccc2)(c2ccccc2)c2ccccc2)cc1` [[^18F]FTPP], for which, in data set [2], the “heart/liver ratio (comparison values of reference agents)” value is listed as 9.2.
For `[18F]CCOc1ccc([P+](Cc2ccccc2)(c2ccccc2)c2ccccc2)cc1` [[^18F]TAP-001, Benzyl-[4-(2-[^18F]fluoroethoxy)phenyl]-diphenylphosphonium bromide], in data set [3], the “accumulation of labeled compound in the myocardium versus adjacent organs” value was “more highly accumulates in the myocardium than in other adjacent organs”; the “ratio of radioactivity accumulations in the myocardium and liver (heart/liver ratio)” value (shortened to “ratio … (heart/liver ratio)”) is 2.70. Further, in the data set on myocardium [4], the “accumulation of radioactivity in the myocardium (PET/CT images)” value (shortened to “accumulation … (PET/CT images)”) is “accumulation of radioactivity in the myocardium was observed”.
As for `[18F]CCOc1cccc([P+](Cc2ccccc2)(c2ccccc2)c2ccccc2)c1.[Br-]` [[^18F]TAP-018, Benzyl[3-(2-[^18F]fluoroethoxy)phenyl]-diphenylphosphonium bromide], in data set [3], the “accumulation of labeled compound in the myocardium versus adjacent organs” value is on record as “more highly accumulates in the myocardium than in other adjacent organs”; the “ratio … (heart/liver ratio)” value was 9.40. Further, in the data set on myocardium [5], the “accumulation of radioactivity in the heart (radioactivity-time curve)” value is on record as “a high level of radioactivity accumulated in the heart immediately after the administration” and the “disappearance of radioactivity from the liver (radioactivity-time curve)” value is “radioactivity disappeared rapidly from the liver until 10 minutes after the administration”. Also, the “accumulation in the heart” value in data set [6] (i.v., n=4) is “highly accumulated in the heart”. Besides, the heart/liver ratio entry in data set [6] (time point of 60 minutes) is given as “about 15.5”. Further, in the data set on myocardium [4], the “contrast of myocardial images” value is listed as “high-contrast myocardial images were obtained” and the “accumulation … (PET/CT images)” value is given as “accumulation of radioactivity in the myocardium was observed”.
As for `COc1ccc(C[P+](c2ccccc2)(c2ccccc2)c2cccc(OCC[18F])c2)cc1` [[^18F]TAP-019, [3-(2-[^18F]fluoroethoxy)phenyl]-(4-methoxyphenyl)methyl-diphenylphosphonium bromide], in data set [3], the “accumulation of labeled compound in the myocardium versus adjacent organs” value is on record as “more highly accumulates in the myocardium than in other adjacent organs”; the “ratio … (heart/liver ratio)” value was 4.56. Moreover, in the data set on myocardium [4], the “contrast of myocardial images” value is listed as “high-contrast myocardial images were obtained” and the “accumulation … (PET/CT images)” value was “accumulation of radioactivity in the myocardium was observed”.
In the same order, the values of `[18F]CCOc1cccc([P+](CCCc2ccccc2)(c2ccccc2)c2ccccc2)c1.[Br-]` [[^18F]TAP-022, [^18F][3-(2-fluoroethoxy)phenyl]-(3-phenylpropyl)-diphenylphosphonium bromide] are “more highly accumulates in the myocardium than in other adjacent organs”, 4.98, “high-contrast myocardial images were obtained” and “accumulation of radioactivity in the myocardium was observed”.
